# Data: patent publication US9156824B2, “CDC7 inhibitors” (Eli Lilly and Company, priority 2013, dated 2015)
# Marks after values point to notes of the source that are not given here.
# Legend:
# CDC7/DBF4 = target: T1, CDC7/DBF4 (Homo sapiens, UniProt O00311); assay: CDC7/DBF4 in vitro enzyme assay (Transcreener Kinase ADP-FP); format: biochemical; conditions: ATP 5 μM, MCM2 400 nM, 60 minutes, read-out: IC50 against CDC7/DBF4 kinase
# T1 construct: host or cells: insect cells
# Method: The Transcreener™ Kinase ADP-FP assay is used to determine compound IC50 values against CDC7/DBF4 kinase. The Kinase ADP-FP assay assesses the activity of CDC7/DBF4 in the presence of compound inhibitors by measuring the concentration of ADP formed in a kinase reaction. The kinase reaction is performed using a 25 microliter reaction volume in 96 well assay plate. For the ADP-FP assay, the reagents are added to obtain the final reaction conditions of HEPES (25 mM) pH 7.5, 0.03% Triton® X-100, magnesium chloride (10 mM), DTT (1 mM), MCM2 (400 nM) (Amino Acid 1-209, a physiological substrate of CDC7/DBF4), spermine (4 mM), CDC7/DBF4 (2,640 ng/mL) (recombinant human CDC7/DBF4 expressed in insect cells), 4% dimethyl sulfoxide and serial dilutions of compound (diluted 1:3 from 20,000 nM to 1 nM). Enzyme and substrate is added to compound followed by ATP to 5 μM to start the reaction. The plates are incubated at room temperature for 60 minutes.
# For the ADP-FP format add 25 microliters of a quench detection reagent containing HEPES (52 mM) pH 7.5, EDTA (20 mM), sodium chloride (0.4 M), polyoxyethyleneglycol dodecyl ether (0.02%) (BRIJ-35™), anti-ADP antibody (10 μg/mL), and ADP (4 nM) Transcreener® ADP Alexa Fluor® 633 tracer to quench the reaction. The plates are incubated for 1 hour, and then read in a Wallac EnVision™ 2104 Multilabel Reader (PerkinElmer) in Fluorescence Polarization mode using polarizing filters of Ex620nm and Em688nm wavelength. Millipolarization (mP) raw data is converted to micromolar ADP using a prepared ADP/ATP standard curve starting at 5 μM ADP 1:1 serial dilution in reaction buffer to 0.0025 μM ADP. The IC50 value for each compound is derived using percent inhibition data calculated from the μM ADP reaction data relative to on-plate controls (DMSO versus 100 mM EDTA inhibited enzyme controls). The percent inhibition and ten-point compound concentration data is then fitted to a four-parameter logistic equation.
# [1] = Antitumor efficacy in human colorectal carcinoma SW620 mouse xenograft model; format: in vivo; conditions: female, athymic Balb/c nude, mouse, in vivo, po; BID orally for 2 weeks, tumor-bearing nude mice; read-out: maximum tolerated dose
# Method: (§1) The in vivo anticancer activity of Example 4 is studied in human colorectal adenocarcinoma cell line SW620 mouse xenograft tumor model which is predicted to be sensitive based on in vitro cell counting proliferative assay data described above. The SW620 cell line is obtained from American Type Culture Collection (ATCC) and is cultured in Leibovitz's L-15 Medium with 10% fetal bovine serum following ATCC instructions. SW620 cell suspension (5.0×10^6/0.2 mL) is injected subcutaneously to the right flank of each female athymic Balb/c nude mice. The mice (5-6 weeks old at arrival) are obtained from Shanghai Sippr-bk Laboratory Animals Ltd. Upon receipt and throughout the study, the animals are housed 5 animals per cage in appropriately sized solid-bottom cages with contact bedding Animals are acclimated for 7 days prior to implantation of the SW620 cells. Animals are fed with Shanghai Laboratory Animal Center certified Rodent Diet with 23% Protein ad libitum and autoclaved tap water is provided ad libitum. The animal room is maintained on a 12-hour light/dark cycle. When the tumor volume reaches an average of 154.9 mm^3 (9 days post tumor implantation), the tumor bearing animals are randomly grouped into 9 groups (8 animals/group) with similar mean tumor volume and body weight. The average body weight of the tumor-bearing mice is 17.3 g. The compound is formulated in HEC 1% w/v, P80 0.25% v/v, and antifoam 1520-US 0.025% v/v in deionized water by probe sonication for 15 minutes on ice and compound formulation is prepared daily for animal dosing. The formulated compound is administered at 10.4, 20.8 and 31.2 mg/kg doses (containing 10, 20 and 30 mg/kg active pharmaceutical ingredient API, respectively) twice a day (BID) by oral gavage (0.1 mL/20 g) for 2 weeks. The BID dosing is performed about 8 hours apart (approximately 9 am and 5 pm each day). The vehicle is also given BID as the control arm of the study. Tumor volume and body weight are measured 3 times a week in a blinded manner. Tumor volume is determined by caliper measurements (mm) and using the formula for an ellipsoid sphere: tumor volume (mm^3)=length×width^2/2, where length and width refer to the larger and smaller perpendicular dimensions collected at each measurement. The animal behavior and animal health are monitored twice a day during dosing period. The study is terminated on day 28 post treatment initiation.
# (§2) The statistical analysis of the tumor volume data begins with a data transformation to a log scale to equalize variance across time and treatment groups. The log volume data are analyzed with a two-way repeated measures analysis of variance by time and treatment using the MIXED procedures in SAS software (Version 9.3). The correlation model for the repeated measures is Spatial Power. Treated groups are compared to the control group at each time point. The MIXED procedure is also used separately for each treatment group to calculate adjusted means and standard errors at each time point. Both analyses account for the autocorrelation within each animal and the loss of data that occurs when animals with large tumors are removed from the study early. The adjusted means and standard errors are plotted for each treatment group versus time. The analysis comparing the treated groups to the control groups at each time point uses the log 10 tumor volumes and produces the p-values. For statistical significance of p-values shown, “***”=P<0.001.
# (§3) If T>T0, the Delta T/C, % calculation is used. […]
# SW620 xenograft tumors = assay: as above; format: in vivo; conditions: for % T/C day 16: SW620 xenograft
# Method: as §1, §2, §3
# T1 sequence (O00311 whole entry): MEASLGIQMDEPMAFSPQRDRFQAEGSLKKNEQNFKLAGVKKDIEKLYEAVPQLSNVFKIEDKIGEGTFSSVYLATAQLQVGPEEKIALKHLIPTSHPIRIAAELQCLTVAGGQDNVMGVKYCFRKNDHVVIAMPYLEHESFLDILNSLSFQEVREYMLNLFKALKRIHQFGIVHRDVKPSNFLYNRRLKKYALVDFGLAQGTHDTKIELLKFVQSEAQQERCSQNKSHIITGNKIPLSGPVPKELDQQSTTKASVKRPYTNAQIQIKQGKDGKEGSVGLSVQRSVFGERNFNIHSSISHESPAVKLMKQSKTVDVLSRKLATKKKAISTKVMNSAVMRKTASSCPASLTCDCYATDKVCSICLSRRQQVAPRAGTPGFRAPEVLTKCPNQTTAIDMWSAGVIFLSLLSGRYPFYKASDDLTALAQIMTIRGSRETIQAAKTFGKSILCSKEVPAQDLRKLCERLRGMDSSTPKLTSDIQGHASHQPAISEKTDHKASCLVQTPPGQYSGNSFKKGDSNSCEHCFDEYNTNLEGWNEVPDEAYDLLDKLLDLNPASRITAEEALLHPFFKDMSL
# T1 sequence (Q9UBU7 whole entry partner): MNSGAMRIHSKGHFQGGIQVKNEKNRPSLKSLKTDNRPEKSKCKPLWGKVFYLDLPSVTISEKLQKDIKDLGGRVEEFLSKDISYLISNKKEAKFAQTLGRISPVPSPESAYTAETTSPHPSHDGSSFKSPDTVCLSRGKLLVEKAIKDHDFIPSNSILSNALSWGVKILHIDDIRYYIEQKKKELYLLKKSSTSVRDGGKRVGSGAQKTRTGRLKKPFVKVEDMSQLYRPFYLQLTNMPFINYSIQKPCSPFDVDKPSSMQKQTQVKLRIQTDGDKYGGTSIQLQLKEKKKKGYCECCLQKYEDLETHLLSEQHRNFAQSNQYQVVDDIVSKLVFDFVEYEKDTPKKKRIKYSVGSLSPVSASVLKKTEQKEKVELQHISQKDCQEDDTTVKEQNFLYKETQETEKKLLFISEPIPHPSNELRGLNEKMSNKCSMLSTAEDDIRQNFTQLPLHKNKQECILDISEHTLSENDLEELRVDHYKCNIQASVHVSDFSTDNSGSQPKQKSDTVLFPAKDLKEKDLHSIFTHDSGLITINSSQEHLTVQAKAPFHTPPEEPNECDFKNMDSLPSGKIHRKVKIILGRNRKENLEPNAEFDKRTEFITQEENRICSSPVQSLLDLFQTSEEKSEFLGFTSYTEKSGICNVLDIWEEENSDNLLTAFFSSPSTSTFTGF
smiles,measurement,setting,value
"CC1(c2ncncc2F)NC(=O)c2cc(-c3cn[nH]c3)ccc21 (single isomer, unassigned; isomer 2) [Example 4, 3-(5-Fluoropyrimidin-4-yl)-3-methyl-6-(1H-pyrazol-4-yl)isoindolin-1-one, Isomer 2, Hydrate]",IC50,CDC7/DBF4,3.3 nM
same,MTD at 2 weeks,[1],31.2 mg/kg
same,% T/C day 16,"SW620 xenograft tumors; 10.4 mg/kg BID × 14, orally",26.1*** %
same,% T/C day 16,"SW620 xenograft tumors; 20.8 mg/kg BID × 14, orally",5.7*** %
same,% T/C day 16,"SW620 xenograft tumors; 31.2 mg/kg BID × 14, orally, negative value = regression",−66.1*** %
same,tumor growth after dosing cessation,"SW620 xenograft tumors; 31.2 mg/kg BID, 2 weeks after dosing cessation",no significant tumor growth
